These results are taken from publication PMC10176505, “PYK-SubstitutionOME: an integrated database containing allosteric coupling, ligand affinity and mutational, structural, pathological, bioinformatic and computational information about pyruvate kinase isozymes” (Database: The Journal of Biological Databases and Curation, 2023).

The target in experiment [1] is T1, hLPYK (Homo sapiens, UniProt P30613).
T1 construct: gene PKLR; full-length liver isozyme; homotetramer; purified or partially purified
T1 sequence (P30613 1-543 isoform P30613-2): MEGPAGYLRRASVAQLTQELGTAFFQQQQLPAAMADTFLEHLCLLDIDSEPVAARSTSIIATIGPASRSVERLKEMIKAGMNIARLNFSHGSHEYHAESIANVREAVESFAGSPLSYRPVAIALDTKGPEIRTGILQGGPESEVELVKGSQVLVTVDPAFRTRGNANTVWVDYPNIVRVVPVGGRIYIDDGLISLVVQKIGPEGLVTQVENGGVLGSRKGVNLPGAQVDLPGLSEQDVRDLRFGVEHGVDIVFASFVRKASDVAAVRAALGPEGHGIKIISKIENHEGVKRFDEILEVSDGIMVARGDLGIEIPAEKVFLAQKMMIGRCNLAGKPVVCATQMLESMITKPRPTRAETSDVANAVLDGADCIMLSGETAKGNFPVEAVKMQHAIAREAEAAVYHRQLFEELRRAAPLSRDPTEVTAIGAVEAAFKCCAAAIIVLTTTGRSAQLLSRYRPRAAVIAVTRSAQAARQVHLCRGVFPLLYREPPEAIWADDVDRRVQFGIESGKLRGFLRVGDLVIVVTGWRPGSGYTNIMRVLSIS
Briefly: enzyme kinetics, allosteric linkage analysis. It counts as biochemical. The settings on record: allosteric inhibitor site; effector binding in absence of PEP; read-out: Kix-Ala. The source says: enzyme kinetics, allosteric linkage analysis on hLPYK | (ii) Kix-Ala, the binding of Ala

Experiment [2] concerns the target T1, hLPYK. Briefly: enzyme kinetics, allosteric linkage analysis. The class given is biochemical. Particulars: allosteric activator site; effector binding in absence of PEP.
In the next experiment the target is T2, rM1PYK (Oryctolagus cuniculus, UniProt P11974).
T2 construct: gene PKM; rabbit muscle M1 isozyme; homotetramer; crystal structures
T2 sequence (P11974 2-531): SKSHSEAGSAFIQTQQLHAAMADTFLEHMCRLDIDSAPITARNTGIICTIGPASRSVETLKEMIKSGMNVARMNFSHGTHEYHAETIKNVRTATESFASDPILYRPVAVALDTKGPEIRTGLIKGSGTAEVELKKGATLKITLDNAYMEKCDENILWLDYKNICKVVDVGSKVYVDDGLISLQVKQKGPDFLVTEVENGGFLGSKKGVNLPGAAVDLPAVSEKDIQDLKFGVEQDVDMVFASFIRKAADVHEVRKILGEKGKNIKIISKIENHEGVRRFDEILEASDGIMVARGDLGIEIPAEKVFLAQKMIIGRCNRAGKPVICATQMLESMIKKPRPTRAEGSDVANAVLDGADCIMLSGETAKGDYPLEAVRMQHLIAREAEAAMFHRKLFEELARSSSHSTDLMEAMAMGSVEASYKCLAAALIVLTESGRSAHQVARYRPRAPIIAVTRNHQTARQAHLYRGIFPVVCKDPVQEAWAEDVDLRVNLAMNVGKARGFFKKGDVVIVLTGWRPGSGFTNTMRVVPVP
Briefly: X-ray crystal structure, […] Å. The class given is binding. The settings on record: active site of some subunits; may stem from the crystallisation medium.

With `C[C@H](N)C(=O)O` [alanine], the Kd at hLPYK [1] was 250 µM.
On to `O=P(O)(O)OC[C@H]1OC(O)(COP(=O)(O)O)[C@@H](O)[C@@H]1O` (stereo partly drawn) [fructose-1,6-bisphosphate], for which the Kix-FBP entry on hLPYK [2] is given as “(iii) Kix-FBP, the binding of Fru-1,6-BP”.
`O=C(O)CCC(=O)O` [succinate]: the “X-ray crystal structure, 2.2 Å” value on rM1PYK was “active sites are populated by either a phosphonate analogue of PEP or succinate”.
